ChEMBL document CHEMBL1759903, “Pentacycloundecane-based inhibitors of wild-type C-South African HIV-protease” (Bioorg Med Chem Lett, 2011)
Peptide text beside a SMILES is read from it. * marks the point of attachment. X1 = Oc1cccc(N*)c1

These compounds were tested against Protease (Human immunodeficiency virus 1, UniProt Q9YQ12) (assay: Inhibition of HIV1 subtype C protease expressed in Escherichia coli BL21 assessed as hydrolysis of substrate using chromogenic substrate Lys-Ala-Arg-Val-Nle-p-nitro-Phe-Glu-Ala-Nle-NH2 by spectrophotometric analysis).
Sequence of Protease (Q9YQ12 whole entry): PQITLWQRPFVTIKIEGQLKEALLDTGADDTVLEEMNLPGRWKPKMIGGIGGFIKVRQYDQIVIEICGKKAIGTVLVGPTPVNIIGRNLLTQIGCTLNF

Row | SMILES | IC50 [nM]
1 | CC[C@H](C)[C@H](N)C(=O)N[C@@H](C)C(=O)N[C@@H](CCC(=O)O)C(=O)NC12NC(=O)C3(O)C4C5CC(C6C5C3C61)C42 (mixture of isomers) | 500
2 | CC[C@H](C)[C@H](NC(=O)[C@@H](N)CO)C(=O)N[C@@H](C)C(=O)N[C@@H](CCC(=O)O)C(=O)NC12NC(=O)C3(O)C4C5CC(C6C5C3C61)C42 (mixture of isomers) | 78
3 | CC[C@H](C)[C@H](NC(=O)[C@@H](N)CO)C(=O)N[C@@H](C)C(=O)N[C@]12NC(=O)[C@@]3(O)C4C5CC(C6C5C3C61)C42 (some centres undefined) | 500
4 | CC[C@H](C)[C@H](NC(=O)[C@@H](N)CO)C(=O)N[C@@H](C)C(=O)N[C@@H](CCC(=O)O)C(=O)NC12NC(=O)C3(OC(C)=O)C4C5CC(C6C5C3C61)C42 (mixture of isomers) | > 10000
5 | CC[C@H](C)[C@H](NC(=O)[C@@H](N)CO)C(=O)N[C@H](C(=O)N[C@@H](CCC(=O)O)C(=O)NC12NC(=O)C3(O)C4C5CC(C6C5C3C61)C42)C(C)C (mixture of isomers) | 2000

The remaining compounds from weak to strong by IC50, led by results:

Row | IC50 [nM] | SMILES
6 | 10000 | CC[C@H](C)[C@H](NC(=O)[C@@H](N)CO)C(=O)N[C@@H](C)C(=O)N[C@@]12NC(=O)[C@]3(O)C4C5CC(C6C5C3C61)C42 (some centres undefined)
7 | 10000 | CC[C@H](C)[C@H](NC(=O)[C@@H](N)CO)C(=O)N[C@@H](C)C(=O)N[C@@H](CCC(=O)O)C(=O)Nc1cccc(O)c1 (H-SIAE-X1)
8 | 5000 | CC[C@H](C)[C@H](NC(=O)[C@@H](N)CO)C(=O)N[C@@H](C)C(=O)N[C@@H](CCC(N)=O)C(=O)NC12NC(=O)C3(O)C4C5CC(C6C5C3C61)C42 (mixture of isomers)
9 | 4 | COC(=O)N[C@H](C(=O)N[C@@H](Cc1ccccc1)[C@@H](O)CN(Cc1ccc(-c2ccccn2)cc1)NC(=O)[C@@H](NC(=O)OC)C(C)(C)C)C(C)(C)C [ATAZANAVIR]
